Assay results published in ChEMBL document CHEMBL4229480, “Terpenoids with vasorelaxant effects from the Chinese liverwort Scapania carinthiaca” (Bioorg Med Chem, 2018).
Where a name gives a salt, the structure may show the parent alone. Activity calls are given as the source filed them. The rule behind the calls is not given here.

Columns and labels:
[1] = test system: MCF7; test: Cytotoxicity against human MCF7 cells after 24 hrs by MTT assay; assay type: functional, cell-based; details: MCF7, 24 h
[2] = test system: A549; test: Cytotoxicity against human A549 cells after 24 hrs by MTT assay; assay type: functional, cell-based; details: A549, 24 h
[3] = test system: PC-3; test: Cytotoxicity against human PC3 cells after 24 hrs by MTT assay; assay type: functional, cell-based; details: PC-3, 24 h
[4] = biological target: Voltage-gated L-type calcium channel (Rattus norvegicus, UniProt P22002+Q02485+P27732); test: Inhibition of voltage-dependent L-type calcium channel in Wistar rat 3rd-order mesenteric artery assessed as reduction in norepinephrine-induced vessel contraction by myographic method; details: for inhibition (INH): rat
[5] = biological target: T1, L-type calcium channel (Mus musculus, UniProt Q01815+Q02789+Q99246+Q9JIS7); test: Inhibition of voltage-dependent L-type calcium channel in mouse MOVAS cells assessed as reduction in KCl/extracellular Ca2+-induced increase in intracellular calcium level pretreated for 10 mins followed by KCl addition by Fluo-3/AM dye based flow cytometry; assay type: cell-based
[6] = biological target: T1, L-type calcium channel; test: Inhibition of voltage-dependent L-type calcium channel in mouse MOVAS cells assessed as reduction in KCl/extracellular Ca2+-induced increase in intracellular calcium level at 0.1 to 0.5 uM pretreated for 10 mins followed by KCl addition by Fluo-3/AM dye based laser scanning microscopic method; assay type: cell-based
[7] = species on record: Mus musculus; test: Vasorelaxant activity in mouse MOVAS1 cells assessed as reduction in KCl-induced increase in intracellular calcium level at 0.1 to 0.5 uM pretreated for 10 mins followed by KCl addition by Fluo-3/AM dye based flow cytometry; assay type: functional, cell-based
[8] = species on record: Mus musculus; test: Vasorelaxant activity in mouse MOVAS1 cells assessed as reduction in KCl-induced increase in intracellular calcium level at 0.1 to 0.5 uM pretreated for 10 mins followed by KCl addition by Fluo-3/AM dye based laser scanning microscopic method; assay type: functional, cell-based
[9] = test system: Artery; test: Vasorelaxant activity in Wistar rat endothelium-denuded 3rd-order mesenteric artery assessed as reduction in norepinephrine-induced vessel contraction by myographic method; assay type: functional, tissue-based

Row | EC50 [4] | inhibition (INH) [4] | inhibition (INH) [5] | inhibition (INH) [6] | EC50 ([9]; Rattus norvegicus, Wistar, Artery) | SMILES | IC50 [1] | IC50 [2] | IC50 [3] | Activity [7] | Activity [8] | %max [9]
1 |  |  |  |  |  | COc1cccc2c1C(=O)c1c(O)c3c(c(O)c1C2=O)C[C@@](O)(C(=O)CO)C[C@@H]3O[C@H]1C[C@H](N)[C@H](O)[C@H](C)O1 [DOXORUBICIN HYDROCHLORIDE] | 0.4 µM | 0.1 µM | 0.8 µM |  |  | 
2 | 4.1 µM | Dose-dependent effect |  |  |  | C=C1CC[C@H](C)[C@@](C)(CCC2=CC(O)OC2=O)C/C=C\C=C/1C(=O)O (stereo partly specified) | > 40 µM | > 40 µM | > 40 µM |  |  | 
3 | 14 µM | Dose-dependent effect |  |  |  | C=C1CC[C@H](C)[C@@](C)(CCC2=CCOC2=O)C/C=C\C=C/1C(=O)O | > 40 µM | > 40 µM | > 40 µM |  |  | 
4 | 12 µM | Dose-dependent effect | Dose-dependent effect | Active | 37 µM | C=C1CC[C@H](C)[C@@](C)(CCC2=CC(OCC)OC2=O)C/C=C\C=C/1C(=O)O (stereo partly specified) | > 40 µM | > 40 µM | > 40 µM | inactive | inactive | 20%
5 |  |  |  |  |  | C=C1C(=O)[C@@]23C[C@@H]1CC[C@@H]2[C@@]1(C)CCCC(C)(C)[C@@H]1COC3=O | 6.6 µM | 2.3 µM | 11.5 µM |  |  | 
6 |  |  |  |  |  | C=C1C(=O)O[C@H]2C[C@]3(C)CC[C@H](O)C(C)=C3C[C@@H]12 | > 40 µM | > 40 µM | > 40 µM |  |  | 
7 |  |  |  |  |  | CC(C)=CC(=O)C[C@@]1(C)[C@@H]2[C@H]3[C@@H](C)CC[C@]3(O)[C@@H](C)CC[C@@H]21 | 15.1 µM | 20.8 µM | 13.1 µM |  |  | 
8 |  |  |  |  |  | CC1(C)[C@@H]2[C@H]3[C@H](CC[C@@]3(C)O)[C@](O)(CO)CC[C@@H]21 | > 40 µM | > 40 µM | > 40 µM |  |  | 
9 | 7.3 µM | Dose-dependent effect |  |  |  | C[C@H]1CC[C@@]2(C)C(C(=O)O)=CCC[C@H]2[C@]1(C)CCC1=CCOC1=O | > 40 µM | > 40 µM | > 40 µM |  |  | 
10 | 14 µM | Dose-dependent effect |  |  |  | CCOC1C=C(CC[C@]2(C)[C@@H](C)CC[C@@]3(C)C(C(=O)O)=CC=C[C@@H]23)C(=O)O1 (stereo partly specified) | > 40 µM | > 40 µM | > 40 µM |  |  | 
11 |  |  |  |  |  | C=C1C(=O)O[C@H]2C[C@]3(C)CCC=C(C)[C@H]3C[C@@H]12 | > 40 µM | > 40 µM | > 40 µM |  |  | 
12 |  |  |  |  |  | CCOC1C=C(CC[C@]2(C)[C@@H](C)CC[C@@]3(C)C(C(=O)O)=CCC[C@@H]23)C(=O)O1 (stereo partly specified) | > 40 µM | > 40 µM | > 40 µM |  |  | 
13 |  |  |  |  |  | CC1(C)[C@@H]2[C@@H]3[C@H](CC[C@@]3(C)O)C(=O)CC[C@@H]21 | > 40 µM | > 40 µM | > 40 µM |  |  | 
14 | 22 µM | Dose-dependent effect |  |  |  | C=C1CC[C@H](C)[C@@](C)(CCC2=CC(OC)OC2=O)C/C=C\C=C/1C(=O)O (stereo partly specified) | > 40 µM | > 40 µM | > 40 µM |  |  | 
15 |  |  |  |  |  | CC1(C)[C@@H]2[C@@H]3[C@H](CC[C@@]3(C)O)[C@@](C)(O)CC[C@@H]21 | > 40 µM | > 40 µM | > 40 µM |  |  | 
16 |  |  |  |  |  | C=C(C)[C@H]1C[C@H]2C(=C)CCC[C@]2(C)C[C@@H]1O | > 40 µM | > 40 µM | > 40 µM |  |  | 
